The text below walks through data of patent US9012411B2, “Formulations from derivatives of curcumin, paclitaxel, and aspirin” (Organomed Corporation, priority 2009, dated 2015).

What all share (assay type): cell-based
Data set [1] has as its system WI38 normal cell line. In words: GI50 (50% inhibition of cell growth), MTT assay, 72 hours. Particulars: Homo sapiens, WI-38, 72 h, WI38, 72 hours. The procedure:
(§1) The cells were plated onto a 96 well plate and treated with different concentrations of the compounds from 1 ng/ml to 10 ug/ml for 72 hours followed by MTT assay.
(§2) The cells were plated onto a 96 well plate and treated with different concentrations of the compounds from 0.04 ng/ml to 400 ng/ml for 72 hours followed by MTT assay.

The subject of data set [2] is PANC-1 cells. Described as above. To be noted: Homo sapiens, PANC-1, 72 h. The protocol: as §1, §2
In data set [3] the test system is PC3 cells. The description is as above. To be noted: Homo sapiens, PC-3, 72 h, PC3, 72 hours. The procedure:
as §1, §2

Data set [4] concerns SK-BR-3 cells. Described as above. To be noted: Homo sapiens, SK-BR-3, 72 h. The protocol:
as §1, §2

Data set [5] has as its system WI38 normal cell line. Description: EC50 cytotoxicity, MTT assay, 48 hours. To be noted: Homo sapiens, WI-38; WI38, 48 hours, 0.04 ng/ml to 400 ng/ml. The procedure:
(§3) Cytotoxicity of the compounds on three different cancer cell lines and one normal cell line was tested. Four human cell lines including both cancer cell lines (SK-BR-3, PANC-1, PC3) and normal cell line (W138) were initially employed. The cells (20,000 cells/well) were plated onto a 96-well plate for 24 hours before treatment. The compounds were diluted in the medium and added to the cells at different concentrations for additional 48 hours from 0.04 ng/ml to 400 ng/ml. MTT assay was then performed.

The test system of data set [6] is PANC-1 cells. In words: EC50 cytotoxicity, MTT assay, 48 hours. To be noted: Homo sapiens; PANC-1, 48 hours, 0.04 ng/ml to 400 ng/ml. The procedure: as §3
In data set [7] the test system is PC3 cells. In words: EC50 cytotoxicity, MTT assay, 48 hours. To be noted: Homo sapiens, PC-3; PC3, 48 hours, 0.04 ng/ml to 400 ng/ml. The procedure:
as §3

Data set [8] relates to SK-BR-3 cells. Description: EC50 cytotoxicity, MTT assay, 48 hours. Particulars: Homo sapiens; SK-BR-3, 48 hours, 0.04 ng/ml to 400 ng/ml. The protocol: as §3
Data set [9] relates to prostate (PC-3) cancer cell line. In words: Cellular inhibition, Alamar Blue. The procedure:
(§4) Assays were performed with 3 cancer cell lines: breast (SKBR3), pancreatic (Panc1), prostate (PC-3) and 1 normal (nor-cancer) cell line (WI-38). Compounds were delivered to the cells after dissolving in DMSO. Five dilutions per compound were tested on a total of 4 cell lines in 96 well plates. Cellular inhibition was measured using Alamar Blue. After addition of compound a 24 hour and 48 hour time point using fluorescent plate reader was taken. Data from plate reader was analyzed in the following way: % inhibition bar graphs, % inhibition line graphs and IC50 growth inhibition values. In Tables 7-14, IC50 units are Molar (M).

Data set [10] concerns normal (non-cancer) cell line WI-38. Description: Cellular inhibition, Alamar Blue. Particulars: for pIC50: Homo sapiens, WI-38. The procedure:
as §4

Data set [11] concerns pancreatic (Panc1) cancer cell line. In words: Cellular inhibition, Alamar Blue. To be noted: Homo sapiens, PANC-1. The procedure:
as §4

Data set [12] relates to breast (SKBR3) cancer cell line. Description: Cellular inhibition, Alamar Blue. To be noted: Homo sapiens, SK-BR-3. The protocol:
as §4

Where [13] appears, read: 0.04 ng/ml to 400 ng/ml (Example 14).
Where [14] appears, read: 1 ng/ml to 10 ug/ml (Example 8).

pIC50: −log10 of the molar value. ≈ marks a conversion by molar mass, not a printed value.

Take `CC(=O)O[C@H]1C(=O)[C@@]2(C)[C@H]([C@H](OC(=O)c3ccccc3)[C@]3(O)C[C@H](OC(=O)[C@H](O)[C@@H](NC(=O)c4ccccc4)c4ccccc4)C(C)=C1C3(C)C)[C@]1(OC(C)=O)CO[C@@H]1C[C@@H]2O` [Taxol, Paclitaxel]: the GI50 stood at 5.6 ng/mL (≈ 6.56 nM) in [1] (setting [13]); 514 ng/mL (≈ 602 nM) in [1] (setting [14]); 5.46 ng/mL (≈ 6.39 nM) in data set [2] (setting [13]); 1.8 ng/mL (≈ 2.11 nM) in data set [2] (setting [14]); 0.05 ng/mL (≈ 0.0586 nM) in [3] (setting [13]); 258 ng/mL (≈ 302 nM) in data set [3] (setting [14]). Also, the concentration for 50% growth inhibition (GI50) in data set [4] (setting [13]) turned out to be 0.78 ng/mL (≈ 0.913 nM); in data set [4] (setting [14]), 1.15 ng/mL (≈ 1.35 nM). Also, the EC50 in data set [5] came out at 37.9 ng/mL (≈ 44.4 nM); in data set [6], 32.8 ng/mL (≈ 38.4 nM); in [7] it was 8.51 ng/mL (≈ 9.97 nM); in [8], 36.1 ng/mL (≈ 42.2 nM). Further, the pIC50 in data set [9] (PC3, 24 hours) was 7.24; in data set [9] (PC3, 48 hours) it was 7.10; in data set [10] (WI38, 24 hours), 4.72; in [10] (WI38, 48 hours), 4.10; in data set [11] (PANC1, 24 hours) it was 6.82; in data set [11] (PANC1, 48 hours) it was 6.74. Besides, the pIC50 was 6.16 in [12] (SKBR3, 24 hours) and 5.49 in [12] (SKBR3, 48 hours). Also, in [9] (PC-3, 48 hours, all concentrations), the inhibition is ~60%. In addition, the “Effect on normal cell growth (WI-38) (in words)” value in data set [10] (48 hours) was “some effect on normal cell growth”.
